Here are results for two molecules from article PMC4955727 (Molecular bioSystems, 2016).

Series [1] addresses T1, P-gp (Homo sapiens, UniProt P08183). As to the kind of experiment: in vitro.
For series [2], the target named is T1, P-gp.
Series [3] concerns P-gp. As to conditions: cited from earlier work.
Another series deals with KB 3-1 cells. The series can be described thus: MTT cytotoxicity of paclitaxel with or without reversal agent, parental cells. Type of series: cell-based.
Another series has as its system KB CH^R 8-5 cells. The format is cell-based.

SMILES strings stand for the structures. Like-named read-outs stand apart in the source and are kept apart here.

By inhibition is commonly meant the change of the read-out against control, counted positive when it falls. A low value points to little suppression. A word on the IC50: it is the concentration needed to halve the response being measured.

T1 sequence (P08183 whole entry): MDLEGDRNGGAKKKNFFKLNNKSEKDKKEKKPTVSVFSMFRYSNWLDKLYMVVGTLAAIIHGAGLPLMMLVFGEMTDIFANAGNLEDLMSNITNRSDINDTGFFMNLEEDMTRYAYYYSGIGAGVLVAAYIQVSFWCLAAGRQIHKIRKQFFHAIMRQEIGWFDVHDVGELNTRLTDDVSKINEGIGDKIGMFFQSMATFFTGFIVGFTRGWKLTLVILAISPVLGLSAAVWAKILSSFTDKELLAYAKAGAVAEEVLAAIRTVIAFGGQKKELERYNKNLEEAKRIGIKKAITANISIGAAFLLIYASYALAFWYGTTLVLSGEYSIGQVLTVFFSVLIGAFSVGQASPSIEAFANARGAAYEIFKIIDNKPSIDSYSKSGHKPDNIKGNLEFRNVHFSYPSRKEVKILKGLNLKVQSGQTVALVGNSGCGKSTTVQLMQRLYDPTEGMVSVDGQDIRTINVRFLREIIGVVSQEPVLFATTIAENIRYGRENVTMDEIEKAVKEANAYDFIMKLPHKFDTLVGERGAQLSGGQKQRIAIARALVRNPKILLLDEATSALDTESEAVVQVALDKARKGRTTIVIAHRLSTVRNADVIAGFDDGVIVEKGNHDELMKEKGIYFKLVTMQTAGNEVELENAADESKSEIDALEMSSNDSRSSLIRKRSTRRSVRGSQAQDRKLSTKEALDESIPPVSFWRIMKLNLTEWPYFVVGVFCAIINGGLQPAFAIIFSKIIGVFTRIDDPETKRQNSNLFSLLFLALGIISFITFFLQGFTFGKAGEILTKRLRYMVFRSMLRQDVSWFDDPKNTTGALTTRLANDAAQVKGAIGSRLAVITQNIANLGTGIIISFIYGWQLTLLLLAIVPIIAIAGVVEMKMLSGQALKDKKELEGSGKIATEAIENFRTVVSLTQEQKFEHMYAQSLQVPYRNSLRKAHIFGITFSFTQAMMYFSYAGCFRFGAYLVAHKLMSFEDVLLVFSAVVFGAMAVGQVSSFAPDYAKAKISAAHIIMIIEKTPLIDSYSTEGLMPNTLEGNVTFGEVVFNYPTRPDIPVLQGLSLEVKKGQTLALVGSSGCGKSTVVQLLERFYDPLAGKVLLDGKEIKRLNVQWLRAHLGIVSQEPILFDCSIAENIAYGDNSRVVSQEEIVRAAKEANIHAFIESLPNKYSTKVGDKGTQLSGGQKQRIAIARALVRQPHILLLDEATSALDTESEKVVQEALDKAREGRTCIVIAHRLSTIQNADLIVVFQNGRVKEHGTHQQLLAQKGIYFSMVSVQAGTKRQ

`COc1cc(-c2oc3cc(O)cc(O)c3c(=O)c2O)ccc1O` [Isorhamnetin] gave an inhibition at 10 µM against P-gp [1] of 19.5%. For the same molecule, the “P-gp efflux inhibitory activity (in words)” value at P-gp [2] is reported as “low inhibitory activity”. Moreover, on P-gp [2] (human), the “Calcein-AM Efflux % inhibition” value is listed as 23.05%. The 50% inhibitory concentration (IC50) in the series with P-gp [3] was 340 nM.
On to `CC(=O)O[C@H]1C(=O)[C@@]2(C)[C@H]([C@H](OC(=O)c3ccccc3)[C@]3(O)C[C@H](OC(=O)[C@H](O)[C@@H](NC(=O)c4ccccc4)c4ccccc4)C(C)=C1C3(C)C)[C@]1(OC(C)=O)CO[C@@H]1C[C@@H]2O` [Paclitaxel], for which the IC50 in the series on KB 3-1 cells (Homo sapiens, KB 3-1, read-out: IC50 ± SEM of paclitaxel) was 40 ± 10 nM; in the series on KB CH^R 8-5 cells (read-out: IC50 ± SEM of paclitaxel) it was 2000 ± 200 nM; in the series with P-gp [3] (read-out: Actual IC50 (Literature) (A), ref Literature (source not given)), 1200 nM. In addition, the “FR (fold-resistance)” value in the series with KB 3-1 cells (KB 3-1, paclitaxel alone) was “[1.0]”; in the series with KB CH^R 8-5 cells (KB Ch^R 8-5, paclitaxel alone, vs KB 3-1), “[50.0]”.
